Reference: patent publication EP0343398A2, “7-Substituted quinolone- and naphthyridinecarboxylic acid derivatives” (BAYER AG, priority 1988, dated 1989)
In brackets after ≈: the same amount, converted by molar mass.

Assays:
Assay in all cases: MIC determination (MHK-Werte), comparison with Ciprofloxacin
Type in all cases: cell-based
[1] = test system: E.coli Neumann; settings: for MIC: Escherichia coli
[2] = test system: Pseudo-monas Walter
[3] = test system: Staph. 1756
[4] = test system: Staph. 133
[5] = test system: Enteroc. 27101
[6] = test system: Enterco. 9790
[7] = test system: Staph. FK422
[8] = test system: Pseudo-monas Ellsworth

For `NCc1ccc(-c2cc3c(cc2F)c(=O)c(C(=O)O)cn3C2CC2)cc1` [Beispiel 20, 7-(4-Aminomethylphenyl)-1-cyclopropyl-6-fluor-1,4-dihydro-4-oxo-3-chinolincarbonsäure], the MIC [1] was no more than 0.015 mg/L.

For `O=C(O)c1cn(C2CC2)c2cc(N3CCNCC3)c(F)cc2c1=O` [Ciprofloxacin, reference compound], the MIC [2] was 0.25 mg/L (≈ 0.754 µM), the MIC [3] was 0.25 mg/L (≈ 0.754 µM) and the MIC [1] was no more than 0.015 mg/L. For the same molecule, the MIC [4] was 0.25 mg/L (≈ 0.754 µM), the MIC [5] was 0.25 mg/L (≈ 0.754 µM) and the MIC [6] was 0.25 mg/L (≈ 0.754 µM). The MIC [7] was 0.25 mg/L (≈ 0.754 µM).

`O=C(O)c1cn(C2CC2)c2cc(-c3ccc4ccccc4c3)c(F)cc2c1=O` [Beispiel 14] was tested, and the MIC [2] was 1 mg/L (≈ 2.68 µM), the MIC [8] was 0.25 mg/L (≈ 0.67 µM) and the MIC [1] was 0.062 mg/L (≈ 0.166 µM).

For `CCOC(=O)c1cn(C2CC2)c2cc(-c3ccccc3)c(F)cc2c1=O` [Beispiel 1, 1-Cyclopropyl-6-fluor-1,4-dihydro-4-oxo-7-phenyl-3-chinolincarbonsäure-ethylester], the MHK-Werte [2] was 0,5 µg/ml, the MHK-Werte [3] was 0,062 µg/ml and the MHK-Werte [8] was 0,25 µg/ml. The MHK-Werte [1] was 0,062 µg/ml, the MHK-Werte [4] was 0,062 µg/ml and the MHK-Werte [5] was 0,062 µg/ml. The MHK-Werte [6] was 0,125 µg/ml and the MHK-Werte [7] was ≤0,015 µg/ml.

Work on `O=C(O)c1cn(C2CC2)c2cc(-c3cccnc3)c(F)cc2c1=O` [Beispiel 16] yielded an MIC [2] of 0.5 mg/L (≈ 1.54 µM) and an MIC [1] of no more than 0.015 mg/L.
